Measurements as given in patent US9714249B2 (Novartis AG, priority 2013, dated 2017).

Legend:
Conditions in all cases: acetyl-histone H4 peptide
BRD3 (His-Brd3(20-477)) = BRD3 (His-Brd3(20-477)) (Homo sapiens (Human), UniProt Q15059); experiment: TR-FRET in-vitro binding assay for BRD3
Procedure: (§1) All assays were performed in 384 well microtiter plates. Each assay plate contained 8-point serial dilutions for 40 test compounds, plus 16 high- and 16 low controls. Liquid handling and incubation steps were done on an Innovadyne Nanodrop Express equipped with a robotic arm (Thermo CatX, Perkin Elmer/Caliper Twister II) and an incubator (Liconic STX40, Thermo Cytomat 2C450). The assay plates were prepared by addition of 50 nl per well of compound solution in 90% DMSO HummingBird nanodispenser (Zinsser Analytic). The assay was started by stepwise addition of 4.5 μl per well of bromo domain protein (50 mM HEPES, pH 7.5, 0.005% Tween20, 0.1% BSA, 50 mM NaCl, 45 nM His-Brd2(60-472) or 45 nM His-Brd3(20-477) or 45 nM His-Brd4(44-477) all proteins produced in-house) and 4.5 μl per well of peptide solution (50 mM HEPES, pH 7.5, 0.005% Tween20, 0.1% BSA, 50 mM NaCl, 60 nM acetyl-histone H4 (AcK 5, 8, 12, 16) (Biosyntan GmbH)). Reactions were incubated at 30° C. for 35 minutes. Subsequently 4.5 μl per well detection mix (50 mM HEPES, pH 7.5, 0.005% Tween20, 0.1% BSA, 50 mM NaCl, 3 nM Eu-labeled anti-His6 antibody, 21 nM streptavidin-allophycocyanin) were added. After 35 minutes incubation at 30° C., plates were measured in a Perkin Elmer EnVision multilabel reader. Concentrations causing 50% inhibition (1050) values were determined from percent inhibition values at different compound concentrations by non-linear regression analysis.
(§2) Test compounds were dissolved in DMSO (10 mM) and transferred into 1.4 mL flat bottom or V-shaped Matrix tubes carrying a unique 2D matrix. The stock solutions were stored at […] if not used immediately. For the test procedure the vials were defrosted and identified by a scanner whereby a working sheet was generated that guided the subsequent working steps. Compound dilutions were made in 96 well plates. This format enabled the assay of maximally 40 individual test compounds at 8 concentrations (single points) including 4 reference compounds, if desired (known BET inhibitors from the prior art, for this and other assays of the type disclosed herein). The dilution protocol included the production of “pre-dilution plates”, “master plates” and “assay plates”.
(§3) Pre-dilution plates: 96 polypropylene well plates were used as pre-dilution plates. A total of 4 pre-dilution plates were prepared including 10 test compounds each on the plate positions A1-A10, one standard compound at A11 and one DMSO control at A12. All dilution steps were done on a HamiltonSTAR robot. Master plates: 30 μL of individual compound dilutions including standard compound and controls of the 4 “pre-dilution plates” were transferred into a 384 “master plate” including the following concentrations 10000, 3003, 1000, 300, 100, 30, 10 and 3 μM, respectively in 90% of DMSO. Assay plates: Identical “assay plates” were then prepared by pipetting 50 nL each of compound dilutions of the “master plates” into 384-well “assay plates” by means of a HummingBird 384-channel dispenser. These plates were used directly for the assay which was performed in a total volume of 13.55 μL. This led to a final compound concentration of 37, 11, 3.7, 1.1, 0.37, 0.11, 0.037 and 0.011 μM and a final DMSO concentration of 0.37% in the assay. Cell Growth Inhibition Assay

BRD2 (His-Brd2(60-472)) = BRD2 (His-Brd2(60-472)) (Homo sapiens (Human), UniProt P25440); experiment: TR-FRET in-vitro binding assay for BRD2
Procedure: as §1, §2, §3

[1] = target: CREBBP bromodomain (His-CREBBP (1081-1197)) (Homo sapiens (Human), UniProt Q92793); experiment: AlphaScreen in-vitro binding assay for CREBBP
Procedure: In order to assess bromodomain selectivity, we set up a binding assay using the bromodomain encoded by the CREBBP gene. […] Reactions were incubated at 30° C. for 35 minutes. Subsequently 4.5 μl per well detection mix (50 mM HEPES, pH 7.5, 0.005% Tween20, 0.02% BSA, 150 mM NaCl, 45 μg/ml Ni-chelate acceptor beads, 45 μg/ml streptavidin-donor beads) (Perkin Elmer)) were added. After 60 minutes incubation at room temperature, plates were measured in a Perkin Elmer EnVision multilabel reader. IC50 values were determined from percent inhibition values at different compound concentrations by non-linear regression analysis.
as §2
Pre-dilution plates: 96 polypropylene well plates were used as pre-dilution plates. A total of 4 pre-dilution plates were prepared including 10 test compounds each on the plate positions A1-A10, one standard compound at A11 and one DMSO control at A12. All dilution steps were done on a HamiltonSTAR robot. […] These plates were used directly for the assay which was performed in a total volume of 13.55 μL. […] Cell Growth Inhibition Assay

Sequence of BRD2 (His-Brd2(60-472)) (P25440 60-472, species assumed): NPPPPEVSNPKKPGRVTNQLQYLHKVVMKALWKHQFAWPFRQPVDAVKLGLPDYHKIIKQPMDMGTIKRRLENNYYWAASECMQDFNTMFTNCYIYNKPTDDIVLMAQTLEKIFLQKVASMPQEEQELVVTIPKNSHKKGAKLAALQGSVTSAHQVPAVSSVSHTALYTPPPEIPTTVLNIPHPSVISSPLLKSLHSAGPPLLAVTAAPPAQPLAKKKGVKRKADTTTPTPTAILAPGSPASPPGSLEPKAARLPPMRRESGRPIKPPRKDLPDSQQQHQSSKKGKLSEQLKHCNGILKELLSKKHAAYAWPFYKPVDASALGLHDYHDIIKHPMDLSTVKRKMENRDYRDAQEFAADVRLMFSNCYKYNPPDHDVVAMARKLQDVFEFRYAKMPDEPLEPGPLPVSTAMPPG
Sequence of CREBBP bromodomain (His-CREBBP (1081-1197)) (Q92793 1081-1197): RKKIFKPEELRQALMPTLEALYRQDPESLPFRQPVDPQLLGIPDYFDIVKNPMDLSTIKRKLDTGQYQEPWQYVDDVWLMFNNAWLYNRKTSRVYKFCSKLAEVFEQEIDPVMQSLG
Sequence of BRD3 (His-Brd3(20-477)) (Q15059 20-477, species assumed): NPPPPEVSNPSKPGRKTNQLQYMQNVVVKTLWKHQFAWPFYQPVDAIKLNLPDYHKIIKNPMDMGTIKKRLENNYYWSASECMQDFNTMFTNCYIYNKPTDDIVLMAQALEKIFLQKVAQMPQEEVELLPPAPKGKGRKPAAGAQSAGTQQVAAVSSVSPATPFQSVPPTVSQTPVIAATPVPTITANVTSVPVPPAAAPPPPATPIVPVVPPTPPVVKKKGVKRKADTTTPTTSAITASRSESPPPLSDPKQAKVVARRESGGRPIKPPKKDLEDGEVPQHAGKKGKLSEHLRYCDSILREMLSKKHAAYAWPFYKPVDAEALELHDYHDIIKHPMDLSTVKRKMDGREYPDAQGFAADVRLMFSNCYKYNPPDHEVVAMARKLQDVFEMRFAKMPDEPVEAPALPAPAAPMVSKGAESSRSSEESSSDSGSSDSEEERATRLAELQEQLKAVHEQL

Compound	IC50 (BRD3 (His-Brd3(20-477)))	IC50 (BRD2 (His-Brd2(60-472)))	IC50 [1]
COc1ncc(-n2nc3c(c2C)C(=O)N(c2cc(C)c(=O)n(C)c2)C3c2ccc(Cl)cc2)c(OC)n1 (stereo not shown) [Example 14, 6-(4-chlorophenyl)-2-(2,4-dimethoxypyrimidin-5-yl)-5-(1,5-dimethyl-6-oxo-1,6-dihydropyridin-3-yl)-3-methyl-5,6-dihydropyrrolo[3,4-c]pyrazol-4(2H)-one]	74 nM	94 nM	5100 nM
COc1ncccc1-n1nc(C)c2c1[C@@H](c1ccc(Cl)cc1)N(c1cc(C)c(=O)n(C)c1)C2=O [Example 25, (R)-6-(4-chlorophenyl)-5-(1,5-dimethyl-6-oxo-1,6-dihydropyridin-3-yl)-1-(2-methoxypyridin-3-yl)-3-methyl-5,6-dihydropyrrolo[3,4-c]pyrazol-4(1H)-one]	64 nM	130 nM	2000 nM
COc1ncc(-n2nc3c(c2C)C(=O)N(c2cc(Cl)c(=O)n(C)c2)C3c2ccc(Cl)cc2)cn1 (stereo not shown) [Example 8b, 5-(5-chloro-1-methyl-6-oxo-1,6-dihydropyridin-3-yl)-6-(4-chlorophenyl)-2-(2-methoxypyrimidin-5-yl)-3-methyl-5,6-dihydropyrrolo[3,4-c]pyrazol-4(2H)-one]	140 nM	160 nM	5400 nM
Cc1cc(N2C(=O)c3c(C4CC4)nn(-c4ccnn4C)c3[C@H]2c2ccc(Cl)cc2)cn(C)c1=O [Example 22, (R)-6-(4-chlorophenyl)-3-cyclopropyl-5-(1,5-dimethyl-6-oxo-1,6-dihydropyridin-3-yl)-1-(1-methyl-1H-pyrazol-5-yl)-5,6-dihydropyrrolo[3,4-c]pyrazol-4(1H)-one]	89 nM	160 nM	2900 nM
CCOc1ncccc1-n1nc2c(c1C)C(=O)N(c1cc(C)c(=O)n(C)c1)C2c1ccc(Cl)cc1 (stereo not shown) [Example 18b, 6-(4-chlorophenyl)-5-(1,5-dimethyl-6-oxo-1,6-dihydropyridin-3-yl)-2-(2-ethoxypyridin-3-yl)-3-methyl-5,6-dihydropyrrolo[3,4-c]pyrazol-4(2H)-one]	39 nM	35 nM	1300 nM
Cc1nn(-c2cccnc2F)c2c1C(=O)N(c1cc(C)c(=O)n(C)c1)C2c1ccc(Cl)cc1 (stereo not shown) [Example 19, 6-(4-chlorophenyl)-5-(1,5-dimethyl-6-oxo-1,6-dihydropyridin-3-yl)-1-(2-fluoropyridin-3-yl)-3-methyl-5,6-dihydropyrrolo[3,4-c]pyrazol-4(1H)-one]	73 nM	80 nM	3800 nM
COc1ccc(-n2nc(C)c3c2C(c2ccc(Cl)cc2)N(c2cc(C)c(=O)n(C)c2)C3=O)cn1 (stereo not shown) [Example 20b, 6-(4-chlorophenyl)-5-(1,5-dimethyl-6-oxo-1,6-dihydropyridin-3-yl)-1-(6-methoxypyridin-3-yl)-3-methyl-5,6-dihydropyrrolo[3,4-c]pyrazol-4(1H)-one]	48 nM	49 nM	–
COc1ncc(-n2nc(C)c3c2C(c2ccc(Cl)cc2)N(c2cc(Cl)c(=O)n(C)c2)C3=O)cn1 (stereo not shown) [Example 8a, 5-(5-chloro-1-methyl-6-oxo-1,6-dihydropyridin-3-yl)-6-(4-chlorophenyl)-1-(2-methoxypyrimidin-5-yl)-3-methyl-5,6-dihydropyrrolo[3,4-c]pyrazol-4(1H)-one]	120 nM	120 nM	> 37000 nM
Cc1cc(N2C(=O)c3c(C4CC4)n[nH]c3[C@H]2c2ccc(Cl)cc2)cn(C)c1=O [Example 24, (R)-6-(4-chlorophenyl)-3-cyclopropyl-5-(1,5-dimethyl-6-oxo-1,6-dihydropyridin-3-yl)-5,6-dihydropyrrolo[3,4-c]pyrazol-4(1H)-one]	47 nM	74 nM	1700 nM
Cc1nn(C)c2c1C(=O)N(c1cc(C)c(=O)n(C)c1)C2c1ccc(Cl)cc1 (stereo not shown) [Example 10, 6-(4-chlorophenyl)-5-(1,5-dimethyl-6-oxo-1,6-dihydropyridin-3-yl)-1,3-dimethyl-5,6-dihydropyrrolo[3,4-c]pyrazol-4(1H)-one]	62 nM	84 nM	3000 nM
Cc1nn(C2CC2)c2c1C(=O)N(c1cc(C)c(=O)n(C)c1)C2c1ccc(Cl)cc1 (stereo not shown) [Example 11, 6-(4-chlorophenyl)-1-cyclopropyl-5-(1,5-dimethyl-6-oxo-1,6-dihydropyridin-3-yl)-3-methyl-5,6-dihydropyrrolo[3,4-c]pyrazol-4(1H)-one]	34 nM	38 nM	1900 nM
Cc1cc(N2C(=O)c3c(C4CC4)nn(CCO)c3C2c2ccc(Cl)cc2)cn(C)c1=O (stereo not shown) [Example 3, 6-(4-chlorophenyl)-3-cyclopropyl-5-(1,5-dimethyl-6-oxo-1,6-dihydropyridin-3-yl)-1-(2-hydroxyethyl)-5,6-dihydropyrrolo[3,4-c]pyrazol-4(1H)-one]	34 nM	42 nM	–
COc1ncc(-n2nc(C)c3c2C(c2ccc(Cl)cc2)N(c2cc(C)c(=O)n(C)c2)C3=O)cn1 (stereo not shown) [Example 21a, 6-(4-chlorophenyl)-5-(1,5-dimethyl-6-oxo-1,6-dihydropyridin-3-yl)-1-(2-methoxypyrimidin-5-yl)-3-methyl-5,6-dihydropyrrolo[3,4-c]pyrazol-4(1H)-one]	52 nM	63 nM	> 11100 nM
COc1ncccc1-c1nn(C)c2c1C(=O)N(c1cc(C)c(=O)n(C)c1)[C@@H]2c1ccc(Cl)cc1 [Example 16, (R)-6-(4-chlorophenyl)-5-(1,5-dimethyl-6-oxo-1,6-dihydropyridin-3-yl)-3-(2-methoxypyridin-3-yl)-1-methyl-5,6-dihydropyrrolo[3,4-c]pyrazol-4(1H)-one]	52 nM	48.5 nM	545 nM
COCCn1nc(C2CC2)c2c1C(c1ccc(Cl)cc1)N(c1cc(C)c(=O)n(C)c1)C2=O (stereo not shown) [Example 4, 6-(4-chlorophenyl)-3-cyclopropyl-5-(1,5-dimethyl-6-oxo-1,6-dihydropyridin-3-yl)-1-(2-methoxyethyl)-5,6-dihydropyrrolo[3,4-c]pyrazol-4(1H)-one]	13 nM	15 nM	3000 nM
COc1ncccc1-n1nc2c(c1C)C(=O)N(c1cc(C)c(=O)n(C)c1)[C@@H]2c1ccc(Cl)cc1 [Example 26, (R)-6-(4-chlorophenyl)-5-(1,5-dimethyl-6-oxo-1,6-dihydropyridin-3-yl)-2-(2-methoxypyridin-3-yl)-3-methyl-5,6-dihydropyrrolo[3,4-c]pyrazol-4(2H)-one]	52 nM	110 nM	1000 nM
CNC1=C(C(=N)C2CC2)C(=O)N(c2cc(C)c(=O)n(C)c2)[C@@H]1c1ccc(Cl)cc1 [Example 2]	20 nM	22 nM	1200 nM
COc1ncccc1-n1nc2c(c1C)C(=O)N(c1cc(Cl)c(=O)n(C)c1)C2c1ccc(Cl)cc1 (stereo not shown) [Example 7b, 5-(5-chloro-1-methyl-6-oxo-1,6-dihydropyridin-3-yl)-6-(4-chlorophenyl)-2-(2-methoxypyridin-3-yl)-3-methyl-5,6-dihydropyrrolo[3,4-c]pyrazol-4(2H)-one]	24 nM	32 nM	1900 nM
